Assay results reported in patent US11053235B2, “Substituted 1,4-dihydropyrimidines for the treatment of HBV infection or HBV-induced diseases” (Janssen Sciences Ireland Unlimited Company, priority 2018, dated 2021).
Counter-ions that a name gives are not always drawn. Like-named read-outs stand apart in the source and are kept apart here.

Tests used:
[1] = tested on: HBV; experiment: Anti-viral assay in HepG2.2.15 cells: HBV inhibitory activity (HBV DNA in culture medium by q-PCR); format: cell-based; conditions: Hepatitis B virus, HepG2.2.15, 144 h
Outline: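 HepG2.2.15 cells seeded at 40,000/well in 2% FBS medium, dosed next day for 6 days (medium refreshed once midway); 8-point 3-fold dilutions from 10 uM top. HBV DNA in culture medium extracted and quantified by q-PCR; EC50 calculated from dose-response.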

[2] = Cytotoxicity determination in HepG2.2.15 cells (CCK-8); format: cell-based; conditions: human, 6 days treatment, CCK-8, highest concentration 100 uM
Outline: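 HepG2.2.15 cells seeded at 5,000 cells/well in 2% FBS medium and exposed to compounds for 6 days (medium refreshed once), 8 three-fold dilutions from 100 uM. Viability read by CCK-8 after 2.5 h at 37 °C, absorbance 450 nm with 630 nm reference; CC50 calculated.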

[3] = HepG2.2.15 cells, 6 days treatment, HBV DNA in culture medium by q-PCR, highest concentration 10 uM, read-out: EC50

| Compound | EC50 [1, 3] [µM] | CC50 at 6 days [2] [µM] | EC50 [1] [µM] |
| --- | --- | --- | --- |
| CCOC(=O)C1=C(C2CCN(c3ncc(C(C)C)c(C(=O)O)n3)CC2)NC(c2nccs2)=NC1c1ccc(F)c(F)c1Cl (single isomer, unassigned) [II-59-B, 2-(4-(6-(2-Chloro-3,4-difluorophenyl)-5-(ethoxycarbonyl)-2-(thiazol-2-yl)-3,6-dihydropyrimidin-4-yl)piperidin-1-yl)-5-isopropylpyrimidine-4-carboxylic Acid] | 0.013 | 8.65 | – |
| CCOC(=O)C1=C(C2CCN(c3ncc(CC)c(C(=O)O)n3)CC2)NC(c2nccs2)=NC1c1ccc(F)c(F)c1Cl (single isomer, unassigned) [II-60-B, 2-(4-(6-(2-Chloro-3,4-difluorophenyl)-5-(ethoxycarbonyl)-2-(thiazol-2-yl)-3,6-dihydropyrimidin-4-yl)piperidin-1-yl)-5-ethylpyrimidine-4-carboxylic Acid] | 0.0059 | 8.92 | – |
| CCOC(=O)C1=C(C2CCN(c3ncc(Cl)c(C(=O)O)n3)CC2)NC(c2nccs2)=NC1c1ccc(F)c(F)c1Cl (single isomer, unassigned) [II-61-B, 5-Chloro-2-(4-(6-(2-chloro-3,4-difluorophenyl)-5-(ethoxycarbonyl)-2-(thiazol-2-yl)-3,6-dihydropyrimidin-4-yl)piperidin-1-yl)pyrimidine-4-carboxylic Acid] | 0.0091 | 6.68 | – |
| CCOC(=O)C1=C(C2CCN(c3ncc(F)c(C(=O)O)n3)CC2)NC(c2nccs2)=NC1c1ccc(F)c(F)c1Cl (single isomer, unassigned) [II-62-B, 2-(4-(6-(2-Chloro-3,4-difluorophenyl)-5-(ethoxycarbonyl)-2-(thiazol-2-yl)-3,6-dihydropyrimidin-4-yl)piperidin-1-yl)-5-fluoropyrimidine-4-carboxylic Acid] | 0.016 | 6.69 | – |
| CCOC(=O)C1=C(C2CCN(c3ncc(C)c(C(=O)O)n3)CC2)NC(c2nccs2)=NC1c1ccc(F)c(F)c1Cl (single isomer, unassigned) [II-63-B, 2-(4-(6-(2-Chloro-3,4-difluorophenyl)-5-(ethoxycarbonyl)-2-(thiazol-2-yl)-3,6-dihydropyrimidin-4-yl)piperidin-1-yl)-5-methylpyrimidine-4-carboxylic Acid] | 0.021 | 8.28 | – |
| CCOC(=O)C1=C(C2CCN(c3nc(C)c(C(=O)O)o3)CC2)NC(c2nccs2)=NC1c1ccc(F)c(F)c1Cl (single isomer, unassigned) [II-64-B, Lithium 2-(4-(6-(2-chloro-3,4-difluorophenyl)-5-(ethoxycarbonyl)-2-(thiazol-2-yl)-3,6-dihydropyrimidin-4-yl)piperidin-1-yl)-4-methyloxazole-5-carboxylate] | – | 6.84 | 0.075 |
| CCOC(=O)C1=C(C2CCN(c3nccc(C(=O)O)n3)CC2)NC(c2nccs2)=NC1c1ccc(F)c(F)c1Cl (single isomer, unassigned) [II-65-B, 2-(4-(6-(2-chloro-3,4-difluorophenyl)-5-(ethoxycarbonyl)-2-(thiazol-2-yl)-3,6-dihydropyrimidin-4-yl)piperidin-1-yl)pyrimidine-4-carboxylic Acid] | 0.0046 | 6.64 | – |
| CCOC(=O)C1=C(C2CCN(c3ncc(CCC(=O)O)cn3)CC2)NC(c2nccs2)=NC1c1ccc(F)c(F)c1Cl (single isomer, unassigned) [II-66-B, 3-(2-(4-(6-(2-Chloro-3,4-difluorophenyl)-5-(ethoxycarbonyl)-2-(thiazol-2-yl)-3,6-dihydropyrimidin-4-yl)piperidin-1-yl)pyrimidin-5-yl)propanoic Acid] | 0.0072 | 10.9 | – |
| CCOC(=O)C1=C(C2CCN(c3ncc(C(C)(C)C(=O)O)cn3)CC2)NC(c2nccs2)=NC1c1ccc(F)c(F)c1Cl (single isomer, unassigned) [II-67-B, 2-(2-(4-(6-(2-Chloro-3,4-difluorophenyl)-5-(ethoxycarbonyl)-2-(thiazol-2-yl)-3,6-dihydropyrimidin-4-yl)piperidin-1-yl)pyrimidin-5-yl)-2-methylpropanoic Acid] | 0.012 | 2.02 | – |
| CCOC(=O)C1=C(C2CCN(c3nc(C(=O)O)c(C)o3)CC2)NC(c2nccs2)=NC1c1ccc(F)c(F)c1Cl (single isomer, unassigned) [II-68-B, 2-(4-(6-(2-Chloro-3,4-difluorophenyl)-5-(ethoxycarbonyl)-2-(thiazol-2-yl)-3,6-dihydropyrimidin-4-yl)piperidin-1-yl)5-methyloxazole-4-carboxylic Acid] | 0.016 | 8.32 | – |
| CCOC(=O)C1=C(C2CCN(c3ncc(CC(=O)O)cn3)CC2)NC(c2nccs2)=NC1c1ccc(F)c(F)c1Cl (single isomer, unassigned) [II-69-B, 2-(2-(4-(6-(2-Chloro-3,4-difluorophenyl)-5-(ethoxycarbonyl)-2-(thiazol-2-yl)-3,6-dihydropyrimidin-4-yl)piperidin-1-yl)pyrimidin-5-yl)acetic Acid] | 0.0031 | 4.08 | – |
| CCOC(=O)C1=C(C2CCN(c3nc(C(=O)O)co3)CC2)NC(c2nccs2)=NC1c1ccc(F)c(F)c1Cl (single isomer, unassigned) [II-70-B, 2-(4-(6-(2-Chloro-3,4-difluorophenyl)-5-(ethoxycarbonyl)-2-(thiazol-2-yl)-3,6-dihydropyrimidin-4-yl)piperidin-1-yl)oxazole-4-carboxylic Acid] | 0.01 | 11.8 | – |
| CCOC(=O)C1=C(C2CCN(c3nc(C)c(C(=O)O)c(C)n3)CC2)NC(c2nccs2)=NC1c1ccc(F)c(F)c1Cl (single isomer, unassigned) [II-71-B, 2-(4-(6-(2-chloro-3,4-difluorophenyl)-5-(ethoxycarbonyl)-2-(thiazol-2-yl)-3,6-dihydropyrimidin-4-yl)piperidin-1-yl)-4,6-dimethylpyrimidine-5-carboxylic Acid] | 0.02 | 6.33 | – |
| CCOC(=O)C1=C(C2CCN(c3ncc(C(=O)O)c(C)n3)CC2)NC(c2nccs2)=NC1c1ccc(F)c(F)c1Cl (single isomer, unassigned) [II-73-B, 2-(4-(6-(2-Chloro-3,4-difluorophenyl)-5-(ethoxycarbonyl)-2-(thiazol-2-yl)-3,6-dihydropyrimidin-4-yl)piperidin-1-yl)-4-methylpyrimidine-5-carboxylic Acid] | 0.025 | 5.92 | – |
| CCOC(=O)C1=C(C2CCN(c3ncc(C(=O)O)cn3)CC2)NC(c2nccs2)=NC1c1ccc(F)c(F)c1Cl (single isomer, unassigned) [II-74-B, 2-(4-(6-(2-Chloro-3,4-difluorophenyl)-5-(ethoxycarbonyl)-2-(thiazol-2-yl)-3,6-dihydropyrimidin-4-yl)piperidin-1-yl)pyrimidine-5-carboxylic Acid] | 0.0066 | 9.31 | – |
| CCOC(=O)C1=C(C2CCN(c3nncs3)CC2)NC(c2nccs2)=NC1c1ccc(F)c(F)c1Cl (single isomer, unassigned) [II-75-X, Ethyl 6-(1-(1,3,4-thiadiazol-2-yl)piperidin-4-yl)-4-(2-chloro-3,4-difluorophenyl)-2-(thiazol-2-yl)-1,4-dihydropyrimidine-5-carboxylate] | 0.03 | 9.81 | – |
| CCOC(=O)C1=C(C2CCN(c3cnc(C(=O)O)s3)CC2)NC(c2nccs2)=NC1c1ccc(F)c(F)c1Cl (single isomer, unassigned) [II-76-B, 5-(4-(6-(2-Chloro-3,4-difluorophenyl)-5-(ethoxycarbonyl)-2-(thiazol-2-yl)-3,6-dihydropyrimidin-4-yl)piperidin-1-yl)thiazole-2-carboxylate lithium salt] | – | 6.68 | 0.09 |
| CCOC(=O)C1=C(C2CCN(c3nc(COC)c(C(=O)O)s3)CC2)NC(c2nccs2)=NC1c1ccc(F)c(F)c1Cl (single isomer, unassigned) [II-77-B, 2-(4-(6-(2-Chloro-3,4-difluorophenyl)-5-(ethoxycarbonyl)-2-(thiazol-2-yl)-3,6-dihydropyrimidin-4-yl)piperidin-1-yl)-4-(methoxymethyl)thiazole-5-carboxylic Acid] | 0.029 | 9.74 | – |
| CCOC(=O)C1=C(C2CCN(c3ncc(C(=O)O)s3)CC2)NC(c2nccs2)=NC1c1ccc(F)c(F)c1Cl (single isomer, unassigned) [II-78-B, 2-(4-(6-(2-Chloro-3,4-difluorophenyl)-5-(ethoxycarbonyl)-2-(thiazol-2-yl)-3,6-dihydropyrimidin-4-yl)piperidin-1-yl)thiazole-5-carboxylic Acid] | < 0.0046 | 12.1 | – |
| CCOC(=O)C1=C(C2CCN(c3nc(C(F)(F)F)c(C(=O)O)s3)CC2)NC(c2nccs2)=NC1c1ccc(F)c(F)c1Cl (single isomer, unassigned) [II-79-B, 2-(4-(6-(2-Chloro-3,4-difluorophenyl)-5-(ethoxycarbonyl)-2-(thiazol-2-yl)-3,6-dihydropyrimidin-4-yl)piperidin-1-yl)-4-(trifluoromethyl)thiazole-5-carboxylic Acid] | 0.013 | 1.14 | – |
| CCOC(=O)C1=C(C2CCN(c3nc(C(=O)O)cs3)CC2)NC(c2nccs2)=NC1c1ccc(F)c(F)c1Cl (single isomer, unassigned) [II-80-B, 2-(4-(6-(2-Chloro-3,4-difluorophenyl)-5-(ethoxycarbonyl)-2-(thiazol-2-yl)-3,6-dihydropyrimidin-4-yl)piperidin-1-yl)thiazole-4-carboxylic Acid] | 0.045 | 10.2 | – |
